Article PMC11310889, “Ribosomal translation of fluorinated non-canonical amino acids for de novo biologically active fluorinated macrocyclic peptides” (Chemical Science, 2024)

How the values were obtained:
Assay type in all cases: cell-based, Escherichia coli
[1] = test system: E. coli W3110; experiment: Propidium iodide (PI) assay of membrane permeability; conditions: E. coli W3110 logarithmic-phase, 15 min treatment with 5 μM peptide, PI 25 μg/mL 15 min (Fig. 5A)
Method: Propidium Iodide (PI) assay
Thaw the previously preserved E. coli W3110 cells from the -80 °C freezer. Scrape a small amount and inoculate it into 1 mL of LB liquid medium. Culture overnight in a 37°C shaker. Next day, inoculate the strain into fresh LB liquid medium at a 1:100 ratio and incubate at 37 °C until the OD600 reaches approximately 0.47 to 0.53. Take 100 μL of the E. coli W3110 cells and centrifuge for 2 min at 13,000 rpm. Discard the supernatant. For the untreated group, resuspend the cells in 100 μL of PBS. For the peptide treatment group, resuspend the cells in 99 μL of ddH2O and add 1 […]
μL of 0.5 mM of the different peptides. Mix thoroughly and let react for 15 min. After the treatment, take 80 μL of each sample and incubate with PI at a final concentration of 25 μg/mL for 15 min.
After incubation, wash the samples with the same amount of PBS, centrifuge, and resuspend at a 10-fold concentration. Observe the images using a Nikon Eclipse Ci-L Plus microscope. […]
(§1) Incubate overnight in a 37°C shaker. […]
Centrifuge again at
6100g for 10 min, discard the supernatant, and add 500 μL of ddH2O containing 2.5% glutaraldehyde. Resuspend and fix the cells overnight at 4°C. Centrifuge at 6100g for 10 min, remove the supernatant, and wash twice with ddH2O, letting it stand for 15 min each time, followed by centrifugation at 6100g for 10 min. Discard the supernatant. Dehydrate the sample with ethanol at concentration gradients of 30%, 60%, and 90%, without resuspension, centrifuging at 6100g for […]

[2] = test system: E. coli W3110; experiment: Protein leakage assay; conditions: E. coli W3110, 5 μM peptide, 15 min, pellet analysed by SDS-PAGE, compared to R9-treated sample (Fig. S10)
Method: Thaw the previously preserved E. coli W3110 cells from the -80 °C freezer. Scrape a small amount and inoculate it into 1 mL of LB liquid medium. Incubate overnight in a 37°C shaker. Next day, transfer the culture to fresh LB liquid medium at a 1:100 inoculation ratio and incubate at 37 °C until the OD600 reaches approximately 0.47 to 0.53. Collect 300 μL of the E. coli W3110 cells and centrifuge for 2 min at 13,000 rpm, discarding the supernatant afterward. Resuspend the untreated group in 300 μL of PBS, and the peptide treatment group in 297 μL of ddH2O. Add 3 μL of 0.5 mM different peptides to the treatment group, mix well, and allow to react for 15 min. After the treatment, resuspend all samples in 15 μL of 6×SDS loading buffer and 15 μL of 10% SDS. All samples were heated at 99.9°C for 15 min, followed by 10% SDS-PAGE analysis and staining with Coomassie brilliant blue R250. […]
as §1

[3] = test system: E. coli W3110; experiment: Scanning electron microscopy of cell morphology; conditions: E. coli W3110 logarithmic-phase, 4 h treatment at 2 μM and 5 μM (Fig. 5B, S11)
Method: Thaw the previously preserved E. coli W3110 cells from the -80 °C freezer. […]
Scanning electron microscopy
Thaw the previously preserved E. coli W3110 cells from the -80°C freezer. Scrape a small amount and inoculate it into 1 mL of LB liquid medium. Incubate overnight in a 37°C shaker. The next day, inoculate the strain into fresh LB liquid medium at a 1:100 ratio and incubate at 37°C until the OD600 reaches approximately 0.47 to 0.53. Take 500 μL of E. coli W3110 cells, centrifuge for 10 min at 4000 rpm, and discard the supernatant. Resuspend the cells in 500 μL of PBS, then centrifuge again at 4000 rpm for 10 min and discard the supernatant. Dissolve various macrocyclic peptides in DMSO and dilute to the required concentration. Resuspend the untreated group in 500 μL of PBS.
For the peptide treatment group, resuspend in 495 μL of ddH2O, add 5 μL of 0.2 mM or 0.5 mM peptides, mix well, and let react for 4 h.
After the treament, spot 4 μL of the sample on plates. Perform the first ten-fold dilution and mix, then continue with the second to fifth ten-fold dilutions. Incubate the plates inverted overnight in a 37°C incubator. Scan and count the colonies. For the remaining 492 μL, centrifuge at 6100g for 10 min, discard the supernatant, add 500 μL of ddH2O, and let it stand for 15 min. Centrifuge again at 6100g for 10 min, discard the supernatant, and add 500 μL of ddH2O containing 2.5% glutaraldehyde. Resuspend and fix the cells overnight at 4°C. Centrifuge at 6100g for 10 min, remove the supernatant, and wash twice with ddH2O, letting it stand for 15 min each time, followed by centrifugation at 6100g for 10 min. Discard the supernatant. Dehydrate the sample with ethanol at concentration gradients of 30%, 60%, and 90%, without resuspension, centrifuging at 6100g for […]
10 min and discarding the supernatant after each step. Finally, use 100% ethanol, rest for 15 min, centrifuge at 6100g for 10 min, discard the supernatant, and repeat with 100% ethanol, leaving about 10 μL. Then the critical point was dried and sprayed with gold, and the images were observed by […]
Prediction of binding sites between peptides and the BAM complex
Firstly, the fpocket algorithm was used, a rapid method for pocket prediction based on the three-dimensional structure of BAM complex (PDB ID: 5AYW). This method establishes a grid surrounding the protein, positioning alpha spheres on grid points devoid of spatial conflicts with protein atoms, subsequently utilizing a clustering algorithm to ascertain whether these regions constitute potential binding pockets. Alpha spheres were designated with radii ranging from 3.4Å to 6.2Å, with a prerequisite of at least 15 alpha spheres for a region to be considered a pocket. […]
PepNN evaluated each amino acid for its potentiality as a peptide binding site. […]

Ac-DYLIWYSRSHPFRVCGS(Acp)RRRRRRRRR-NH2 (sidechain bridge or staple) [BAM-D1-R9, BAM-D1 conjugated with cell-penetrating peptide R9]
PI red fluorescence (cell membrane permeability) [1]: notable red fluorescence intensity | cellular protein leakage [2]: partial cellular protein leakage | morphological changes by scanning electron microscopy [3]: severe damage in the cell shape and even lysis
